Measured values: US20220169989A1, “HUMAN CARDIOMYOCYTE SEPARATION REAGENT, CULTURE MEDIUM, SEPARATION METHOD, AND CULTURE METHOD” (FUWAI HOSPITAL CHINESE ACADEMY OF MEDICAL SCIENCES, priority 2019, published 2022)
Converted amounts (≈) assume the structure as drawn.

Tests used:
[1] = test system: human cardiomyocytes; experiment: Effect of coating composition on adherent cardiomyocytes (Example 2.2); assay type: cell-based; settings: 72 hours; for number of rod-shaped cells: medium with 20 mM BDM
Experimental: 48-well culture plates were coated with the following reagents: laminin (Gibco, product number: 23017015; 50 μg/ml or 200 μg/ml, incubated overnight in a 37° C. incubator, and air dried), fibronectin (Sigma Aldrich, product number: F0895-2 MG; 5 μg/ml or 50 μg/ml, air dried), poly-L-lysine (Sigma Aldrich, product number: P04832-50 ML; 0.01%, incubated at room temperature for 5 min, air dried), and Matrigel (Corning, product number: 354234; incubated at 37° C. for 30 min). The culture medium used in this experiment was obtained by adding 20 mM BDM, 10% fetal bovine serum, 100 U/ml penicillin and 100 μg/ml streptomycin to M199 medium. The isolated cardiomyocytes were plated on coated 48-well culture plates, cultured for 72 hours (h), and photographed under a microscope. 4 fields of view were taken for each group for calculating the average number of rod-shaped cells, and the result was expressed as the mean±standard deviation.

[2] = test system: human cardiomyocytes; experiment: Human cardiomyocyte isolation test (calcium-free solution); assay type: cell-based
Experimental: The cardiomyocyte isolation process generally comprises tissue transport and sectioning, calcium-free perfusion, enzyme solution digestion and cell collection. In the process, the calcium-free Tyrode's solution (calcium-free solution) was the main reagent used in the isolation process, for calcium-free perfusion, enzyme solution digestion and cell collection. The test was conducted in this invention by reference to the cardiomyocyte isolation experimental protocol described in Liang Chen, Guang-ran Guo, Man Rao, Kai Chen, Jiang-ping Song and Sheng-shou Hu, “A Modified Method for Isolation of Human Cardiomyocytes to Model Cardiac Diseases.”, Journal of Translational Medicine (2018). Specific steps were as follows:
An excised left atrial appendage was immediately placed in an organ preservation solution (manufactured by the University of Wisconsin, USA) (about 4° C.), and quickly transferred it to a 60 mm cell culture dish in a super clean bench, an organ preservation solution (about 4° C.) was added, and the culture dish was placed on an ice box pre-cooled in a refrigerator at −20° C. Scissors were used to remove excess fat and trim it, the tissue was adhered to a specimen stage, and a microtome (Leica VT1200S, Germany) was used to slice the tissue (300 μm) which was then manually cut into pieces in the super clean bench. The cut atrial appendage pieces were divided into three groups, and the tissues were decalcified three times using the calcium-free solution of the present invention. 15-20 ml calcium-free solution was added to an Erlenmeyer flask for calcium-free perfusion for three times. The Erlenmeyer flask was shaken at room temperature, the calcium-free solution was replaced with fresh one after 2 min and 3 min respectively, and the third calcium-free perfusion time is 4 min. After finishing the calcium-free perfusion, the calcium-free solution was discarded and enzyme solution 1 (preheated to 37° C.) formulated from the corresponding calcium-free solution was added respectively. […] The enzyme solution was collected into a 15 ml centrifuge tube, fresh enzyme solution 1 was added to the Erlenmeyer flask, and digestion was still performed in the water bath kettle. The collected enzyme solution was placed in a pre-cooled 4° C. centrifuge (Eppendorf centrifuge 5804R, Germany) for centrifugation (100×g, 1 min), and the supernatant was discarded, followed by observing whether there were cardiomyocytes in the precipitate at the tube bottom, and determining the proportion of rod-shaped cells. The second digestion is the same as the first digestion. When the rate of rod-shaped cardiomyocytes contained in the precipitate is 70% or more, the enzyme solution 1 was replaced with enzyme solution 2 formulated from the calcium-free solution used in the enzyme solution 1, and digestion was continued. This time, cardiomyocytes in the turbid enzyme solution were collected by centrifugation (4° C., 100×g, 1 min) and then resuspending cells in a 3 ml transport solution.
In the process, the calcium-free solution was a calcium-free solution comprising 5 μM (−)-Blebbistatin, 10 μM (−)-Blebbistatin, and 20 mM BDM, respectively.

[3] = test system: human cardiomyocytes; experiment: Effect of myosin inhibitors BTS and MYK-461 on survival rate (Example 2.5); assay type: cell-based; settings: MEM-HEPES-GlutaMAX + 10% FBS, p<0.05
Experimental: In order to explore whether there are other myosin ATPase inhibitors besides BDM and (−)-Blebbistatin that can improve the rate of rod-shaped cardiomyocytes, the effects of (−)-Blebbistatin, BTS, and MYK-461 on the activity of cardiomyocytes were compared. For the isolated human cardiomyocytes, MEM-4-hydroxyethyl piperazine ethanesulfonic acid-GlutaMAX medium comprising 10 μM (−)-Blebbistatin, BTS (at concentrations of 5 μM, 10 μM, 20 μM, 30 μM, 40 μM, or 50 μM, respectively), or MYK-461 (at concentrations of 0.5 μM, 1 μM, 2 μM, 5 μM, 10 μM, or 20 μM, respectively) respectively was used, and 10% fetal bovine serum, 100 U/ml penicillin and 100 μg/ml streptomycin were added to the medium.

[4] = test system: human cardiomyocytes; experiment: In vitro culture of isolated human cardiomyocytes after recalcification; assay type: cell-based; settings: 10 μM in isolation and in M199 + 10% FBS culture; cultured for 6 days; higher than 20 mM BDM group, p<0.05
Experimental: In addition, in order to observe whether the cell states were different when the human cardiomyocytes isolated using two calcium-free solutions (20 mM BDM and 10 μM (−)-Blebbistatin) were cultured in vitro, we performed recalcification on the isolated human cardiomyocytes. Specifically, it was difficult for human cardiomyocytes to survive in an environment without calcium ions, and the present invention adopted a 5-step gradient recalcification method to restore the calcium ion concentration of human cardiomyocytes. The concentration gradients of CaCl2 (with a stock concentration of 30 mM) added to the cell collection solution were 0.08 mM (5 min), 0.25 mM (5 min), 0.5 mM (5 min), 1 mM (5 min), and 1.8 mM (15 min) in order. The human cardiomyocytes isolated in the 20 mM BDM group were cultured using M199 medium with addition of 10% fetal bovine serum (FBS) (note: the concentration percentage of fetal bovine serum in the examples and corresponding figures was volume percentage), 100 U/ml penicillin, 100 μg/ml streptomycin and 20 mM BDM. […]

[5] = test system: human cardiomyocytes; experiment: Culture test: concentrations of (−)-Blebbistatin and para-aminoblebbistatin (Example 2.1); assay type: cell-based
Experimental: 10% fetal bovine serum, 100 U/ml penicillin and 100 μg/ml streptomycin were added to M199 medium (purchased from Sigma), and the resulting medium was used as the basal medium. The experiment was divided into 9 groups, i.e. 0, 2.5, 5, 10, or 20 μM (−)-Blebbistatin, or 5 μM, 10 μM, 20 μM, or 50 μM para-aminoblebbistatin was added to the basal medium. The isolated human cardiomyocytes were divided into 9 groups, and the cells using 9 culture media were plated on a 48-well cell culture plate precoated with 200 μg laminin, and placed and cultured in a 37° C. cell incubator (with 5% CO2, and a relative saturated humidity of 95%) for 7 days, and the rates of rod-shaped cardiomyocytes were calculated.

[6] = water solubility, known property; cited from earlier work

## laminin
[1]; coating 200 μg/ml
  number of rod-shaped cells: highest number of rod-shaped cells
[1]; coating, laminin 50-200 μg/ml
  adherence and growth of cardiomyocytes: can allow cardiomyocytes to adhere and grow

## CC(=O)C(C)=NO [BDM, 2,3-butanedione monoxime]
[2]; 20 mM
  rod-shaped cell morphology after isolation (photomicrographs): not well maintained
[2]; 20 mM in calcium-free solution, reference of the normalization
  normalized rod-shaped cell rate: 1.0

## Cc1ccc(S(=O)(=O)NCc2ccccc2)cc1 [BTS, N-benzyl-p-toluenesulfonamide]
[3]; 5-50 μM vs 10 μM (−)-Blebbistatin
  percentages of rod-shaped cells: significantly lower than the percentage in the (−)-Blebbistatin group

## fibronectin
[1]; coating 5 μg/ml, 50 μg/ml
  number of rod-shaped cells: significantly lower than that in the Matrigel group, 50 μg/ml laminin group and 200 μg/ml laminin group

## Cc1ccc2c(c1)C(=O)[C@]1(O)CCN(c3ccccc3)C1=N2 [(−)-Blebbistatin]
[2]; 5 μM and 10 μM
  rod-shaped cell morphology after isolation (photomicrographs): can maintain the long rod-shaped morphology of human cardiomyocytes
[2]; 5 μM and 10 μM in calcium-free solution, 20 mM BDM group normalized to 1.0, p<0.05
  normalized rod-shaped cell rate: 1.2-1.5
[2]; 5 μM and 10 μM vs 20 mM BDM group, p<0.05
  lengths of human cardiomyocytes isolated: remarkably longer than those in the 20 mM BDM group
[4]
  rate of rod-shaped cardiomyocytes: ≥ 80%
[5]; 5 μM and 10 μM vs 0 μM, after 1 day of culture
  state of cardiomyocytes (culture images): remarkably better than in the 0 μM group
[5]; 10 μM compared with 5 μM, 1 day, more obvious after 7 days
  long rod-shaped morphology of cardiomyocytes (culture images): better maintained the long rod-shaped morphology of cardiomyocytes
[5]; 2.5, 5, 10, 20 μM vs 0 μM, M199 + 10% FBS, 7 days, p<0.001
  rate of rod-shaped cells: remarkably higher than that in the group without (−)-Blebbistatin
[6]
  solubility: 10.9 ± 0.9 µM (≈ 3.19 µg/mL)

## Cc1ccc2c(c1)C(=O)[C@]1(O)CCN(c3ccc(N)cc3)C1=N2 [para-aminoblebbistatin]
[5]; 10 μM para-aminoblebbistatin vs 10 μM (−)-Blebbistatin, 7 days
  viability / survival rate of human cardiomyocytes: no statistical difference
[5]; 5-50 μM, 7 days
  survival rate of cardiomyocytes: can significantly improve the survival rate of cardiomyocytes

## CC(C)n1c(=O)cc(N[C@@H](C)c2ccccc2)[nH]c1=O [MYK-461]
[3]; 0.5-20 μM vs 10 μM (−)-Blebbistatin
  percentages of rod-shaped cells: significantly lower than the percentage in the (−)-Blebbistatin group
